“And” between values parts separate entries of the source, which are not always exact repeats. Equal entries are not always repeated. Toxic doses and inconclusive results are not listed. Square brackets hold non-standard residues; d marks the D form. Peptide text beside a SMILES is read from it. * marks the point of attachment. ξ: configuration not given here. Cbz = O=C(OCc1ccccc1)*; ξT = CC(O)C(N)C(=O)O
Tested on: P388 leukemia ip, CD2F1 mice, survival T/C
Test: NCI In Vivo Anticancer Drug Screen. Data for tumor model P388 Leukemia (intraperitoneal) in CD2F1 (CDF1) mice
Conditions: endpoint: median survival time, higher = longer survival
Protocol: The antitumor activity of compounds was measured in mice bearing transplantable tumors. Survival or tumor size were measured and the results are expressed as the measurement made in the treated group (T) divided by the measurement made in the vehicle treated control group (C). The tumor model used in this assay is P388 Leukemia (intraperitoneal) in CD2F1 (CDF1) mice

[1] = dose: 50.0 mg/kg/injection, schedule: Q01DX009 (ip), vehicle: saline with Tween-80
[2] = dose: 100.0 mg/kg/injection, schedule: Q01DX009 (ip), vehicle: saline with Tween-80
[3] = dose: 200.0 mg/kg/injection, schedule: Q01DX009 (ip), vehicle: saline with Tween-80
[4] = dose: 12.5 mg/kg/injection, schedule: Q01DX009 (ip), vehicle: other
[5] = dose: 25.0 mg/kg/injection, schedule: Q01DX009 (ip), vehicle: other
[6] = dose: 50.0 mg/kg/injection, schedule: Q01DX009 (ip), vehicle: other
[7] = dose: 100.0 mg/kg/injection, schedule: Q01DX009 (ip), vehicle: other
[8] = dose: 200.0 mg/kg/injection, schedule: Q01DX009 (ip), vehicle: other
[9] = dose: 50.0 mg/kg/injection, schedule: Q01DX005 (ip), vehicle: saline with Tween-80
[10] = dose: 100.0 mg/kg/injection, schedule: Q01DX005 (ip), vehicle: saline with Tween-80
[11] = dose: 200.0 mg/kg/injection, schedule: Q01DX005 (ip), vehicle: saline with Tween-80
[12] = dose: 60.0 mg/kg/injection, schedule: Q01DX005 (ip), vehicle: Klucel (hydroxypropylcellulose) (HPC)
[13] = dose: 120.0 mg/kg/injection, schedule: Q01DX005 (ip), vehicle: Klucel (hydroxypropylcellulose) (HPC)
[14] = dose: 240.0 mg/kg/injection, schedule: Q01DX005 (ip), vehicle: Klucel (hydroxypropylcellulose) (HPC)
[15] = dose: 120.0 mg/kg/injection, schedule: Q01DX005 (ip), vehicle: saline with Tween-80
[16] = dose: 100.0 mg/kg/injection, schedule: Q01DX001 (ip), vehicle: Klucel (hydroxypropylcellulose) (HPC)
[17] = dose: 200.0 mg/kg/injection, schedule: Q01DX001 (ip), vehicle: Klucel (hydroxypropylcellulose) (HPC)
[18] = dose: 400.0 mg/kg/injection, schedule: Q01DX001 (ip), vehicle: Klucel (hydroxypropylcellulose) (HPC)

CC1(C)CC(=O)C2=C(C1)OC1=C(C(=O)CC(C)(C)C1)C2c1cccc([N+](=O)[O-])c1
T/C (dose: 25.0 mg/kg/injection, schedule: Q01DX009 (ip), vehicle: saline with Tween-80): 104 % of control and 95 % of control
T/C [1]: 100 % of control and 93 % of control
T/C [2]: 93 % of control and 94 % of control
T/C [3]: 93 % of control and 95 % of control

COc1cc2c(cc1OC)-c1cc3cc(OC)c(OC)cc3c(C)[n+]1CC2 (tested in a mixture with another compound)
T/C (dose: 1.56 mg/kg/injection, schedule: Q01DX009 (ip), vehicle: water): 102 % of control
T/C (dose: 3.13 mg/kg/injection, schedule: Q01DX009 (ip), vehicle: water): 102 % of control
T/C (dose: 6.25 mg/kg/injection, schedule: Q01DX009 (ip), vehicle: water): 111 % of control
T/C (dose: 12.5 mg/kg/injection, schedule: Q01DX009 (ip), vehicle: water): 118 % of control
T/C (dose: 14.8 mg/kg/injection, schedule: Q01DX009 (ip), vehicle: water): 113 % of control
T/C (dose: 22.0 mg/kg/injection, schedule: Q01DX009 (ip), vehicle: water): 109 % of control
T/C (dose: 33.0 mg/kg/injection, schedule: Q01DX009 (ip), vehicle: water): 117 % of control
T/C (dose: 50.0 mg/kg/injection, schedule: Q01DX009 (ip), vehicle: water): 116 % of control
T/C (dose: 75.0 mg/kg/injection, schedule: Q01DX009 (ip), vehicle: water): 97 % of control

O=S(=O)(Nc1ccccn1)c1ccc(N(CCCl)CCCl)cc1
T/C (dose: 100.0 mg/kg/injection, schedule: Q04DX003 (ip), vehicle: saline with Tween-80): 95 % of control
T/C (dose: 200.0 mg/kg/injection, schedule: Q04DX003 (ip), vehicle: saline with Tween-80): 95 % of control

Nc1ncnc2c1ncn2[C@@H](C=O)O[C@@H](C=O)CO
T/C (dose: 3.13 mg/kg/injection, schedule: Q01DX009 (ip), vehicle: other): 155 % of control
T/C (dose: 6.25 mg/kg/injection, schedule: Q01DX009 (ip), vehicle: other): 150 % of control and 169 % of control

COc1ccc(C(OCC2CC3C=CC2C3)OCC2CC3C=CC2C3)cc1 (stereo not drawn)
T/C [4]: 110 % of control
T/C [5]: 111 % of control
T/C [6]: 105 % of control
T/C [7]: 114 % of control
T/C [8]: 114 % of control

CCOC(=O)NNS(=O)(=O)CCC(NC(=O)OCc1ccccc1)C(=O)OCc1ccccc1 (stereo not drawn)
T/C [4]: 96 % of control
T/C [5]: 104 % of control
T/C [6]: 104 % of control
T/C [7]: 104 % of control
T/C [8]: 104 % of control

O=C(NNC(O)C(F)(F)F)c1ccccc1F (stereo not drawn)
T/C (dose: 100.0 mg/kg/injection, schedule: Q04DX002 (ip), vehicle: Klucel (hydroxypropylcellulose) (HPC)): 99 % of control

CCCNC(=NC)c1ccc(NC(=O)c2ccc(C(=O)Nc3ccc(C(=NC)NCCC)cc3)cc2)cc1
T/C (dose: 5.2 mg/kg/injection, schedule: Q01DX010 (ip), vehicle: saline): 109 % of control
T/C (dose: 18.0 mg/kg/injection, schedule: Q01DX010 (ip), vehicle: saline): 118 % of control

C[Si](C)(C)C#CCO
T/C [9]: 101 % of control
T/C [10]: 100 % of control
T/C [11]: 105 % of control

CC1CCCC(C2CC3CCCCC3C(N)[N-]2)[N-]1.CC1CCCC(C2CC3CCCCC3C(N)[N-]2)[N-]1.O=[N+]([O-])O.[Cu+] (stereo not drawn)
T/C (dose: 25.0 mg/kg/injection, schedule: Q04DX002 (ip), vehicle: suspension in saline): 93 % of control
T/C (dose: 50.0 mg/kg/injection, schedule: Q04DX002 (ip), vehicle: suspension in saline): 97 % of control
T/C (dose: 100.0 mg/kg/injection, schedule: Q04DX002 (ip), vehicle: suspension in saline): 99 % of control and 97 % of control
T/C (dose: 200.0 mg/kg/injection, schedule: Q04DX002 (ip), vehicle: suspension in saline): 96 % of control

COc1ccc2c(c1)C(=O)C=C(c1ccccc1)S2(=O)=O
T/C [12]: 110 % of control
T/C [13]: 110 % of control
T/C [14]: 117 % of control

Cn1cc(CCC(=O)C2C=CC=CC2=NC(=O)CCCl)c2ccccc21 (stereo not drawn)
T/C (dose: 60.0 mg/kg/injection, schedule: Q01DX005 (ip), vehicle: saline with Tween-80): 107 % of control
T/C [15]: 101 % of control
T/C (dose: 240.0 mg/kg/injection, schedule: Q01DX005 (ip), vehicle: saline with Tween-80): 94 % of control

CC(C)N(CC#CCO)CCO
T/C (dose: 60.0 mg/kg/injection, schedule: Q01DX005 (ip), vehicle: saline): 99 % of control
T/C (dose: 120.0 mg/kg/injection, schedule: Q01DX005 (ip), vehicle: saline): 100 % of control
T/C (dose: 240.0 mg/kg/injection, schedule: Q01DX005 (ip), vehicle: saline): 99 % of control

O=C(Cc1nc2ccccc2[nH]1)C(F)(F)F
T/C [16]: 104 % of control
T/C [17]: 94 % of control
T/C [18]: 101 % of control

COc1cc(NCC(O)CN2C(C)CCCC2C)c2ncccc2c1 (stereo not drawn)
T/C (dose: 6.0 mg/kg/injection, schedule: Q01DX005 (ip), vehicle: saline): 98 % of control
T/C (dose: 12.5 mg/kg/injection, schedule: Q01DX005 (ip), vehicle: saline): 100 % of control

O=C1c2ccccc2C(=O)N1CN(CS(=O)(=O)c1ccccc1)c1ccccc1
T/C [12]: 98 % of control
T/C [13]: 88 % of control
T/C [14]: 86 % of control

CC(O)C(NC(=O)OCc1ccccc1)C(=O)NCC(N)=O (stereo not drawn) (Cbz-[ξT]-Gly-NH2)
T/C (dose: 50.0 mg/kg/injection, schedule: Q01DX005 (ip), vehicle: Klucel (hydroxypropylcellulose) (HPC)): 101 % of control
T/C (dose: 100.0 mg/kg/injection, schedule: Q01DX005 (ip), vehicle: Klucel (hydroxypropylcellulose) (HPC)): 115 % of control
T/C (dose: 200.0 mg/kg/injection, schedule: Q01DX005 (ip), vehicle: Klucel (hydroxypropylcellulose) (HPC)): 101 % of control

Cc1ccc(S(=O)(=O)N2CC3CNC(=O)C(C3)C2)cc1 (stereo not drawn)
T/C [16]: 104 % of control
T/C [17]: 101 % of control
T/C [18]: 107 % of control

CSc1nc(N)c(C(=O)Nc2ccccc2)s1
T/C (dose: 50.0 mg/kg/injection, schedule: Q01DX009 (ip), vehicle: Klucel (hydroxypropylcellulose) (HPC)): 103 % of control
T/C (dose: 100.0 mg/kg/injection, schedule: Q01DX009 (ip), vehicle: Klucel (hydroxypropylcellulose) (HPC)): 101 % of control
T/C (dose: 200.0 mg/kg/injection, schedule: Q01DX009 (ip), vehicle: Klucel (hydroxypropylcellulose) (HPC)): 100 % of control

COc1ccc(S(=O)(=O)N/N=C\c2cc([N+](=O)[O-])cc([N+](=O)[O-])c2O)cc1OC
T/C [9]: 99 % of control
T/C [10]: 100 % of control
T/C [11]: 99 % of control

O=S(=O)(O)C(Nc1ccccc1)c1ccccc1 (stereo not drawn)
T/C [2]: 100 % of control
T/C (dose: 100.0 mg/kg/injection, schedule: Q04DX003 (ip), vehicle: saline sonified): 100 % of control
T/C [3]: 109 % of control
T/C (dose: 200.0 mg/kg/injection, schedule: Q04DX003 (ip), vehicle: saline sonified): 100 % of control
T/C (dose: 400.0 mg/kg/injection, schedule: Q01DX009 (ip), vehicle: saline with Tween-80): 104 % of control
T/C (dose: 400.0 mg/kg/injection, schedule: Q04DX003 (ip), vehicle: saline sonified): 100 % of control

CCCCCCCCOC(=O)CP(=O)(O)O
T/C [1]: 100 % of control
T/C [2]: 96 % of control

c1ccc2cc(OCC3CO3)c(OCC3CO3)cc2c1 (stereo not drawn)
T/C (dose: 1.88 mg/kg/injection, schedule: Q01DX005 (ip), vehicle: saline with Tween-80): 100 % of control
T/C (dose: 3.75 mg/kg/injection, schedule: Q01DX005 (ip), vehicle: saline with Tween-80): 107 % of control
T/C (dose: 7.5 mg/kg/injection, schedule: Q01DX005 (ip), vehicle: saline with Tween-80): 116 % of control
T/C (dose: 15.0 mg/kg/injection, schedule: Q01DX005 (ip), vehicle: saline with Tween-80): 122 % of control
T/C [15]: 151 % of control

Nc1nc(C(Br)Br)c([N+](=O)[O-])c(=O)[nH]1
T/C (dose: 12.0 mg/kg/injection, schedule: Q01DX005 (ip), vehicle: saline with Tween-80): 97 % of control
T/C (dose: 12.5 mg/kg/injection, schedule: Q01DX005 (ip), vehicle: saline with Tween-80): 100 % of control
T/C (dose: 25.0 mg/kg/injection, schedule: Q01DX005 (ip), vehicle: saline with Tween-80): 104 % of control and 94 % of control
T/C [9]: 112 % of control and 97 % of control
